{"source": "patent US20250041245A1", "about": "“ENDOXIFEN FOR TREATMENT OF CANCERS” (Atossa Therapeutics, Inc., priority 2021, published 2025)", "type_in_all_cases": "cell-based, human", "key": {"[1]": {"tested_on": "patient-derived tumor organoids (PDTOs), breast cancer", "test": "Endoxifen screen in patient-derived tumor organoids (PARIS Test): breast cancer", "design": "key to Personalization Category: Personalization categories range from High, Good, Moderate, Low, to None; Personalization categories range from High, Good, Moderate, Low, to None; Personalization categories range from High, Good, Moderate, Low, to None; Personalization categories range from High, Good, Moderate, Low, to None; Personalization categories range from High, Good, Moderate, Low, to None; key to Sensitivity Category: Sensitivity categories range from High, Good, Moderate, Low, to None; Sensitivity categories range from High, Good, Moderate, Low, to None; Sensitivity categories range from High, Good, Moderate, Low, to None; Sensitivity categories range from High, Good, Moderate, Low, to None; Sensitivity categories range from High, Good, Moderate, Low, to None", "conditions": "each line one patient sample", "description": "(§1) This example describes screening endoxifen in patient-derived tumor organoids. Endoxifen was tested as a single agent on tumor organoids derived from patients diagnosed with various cancer types using a personalized cancer treatment screening assay (PARIS© Test, SEngine Precision Medicine). The screen utilized patient-derived tumor organoids (PDTOs) along with high-throughput drug screening and machine learning-guided data analysis to quantify the efficacy of endoxifen against samples derived from individual patients diagnosed with various cancer types. PDTOs are self-organizing, three-dimensional organoid structures that recapitulate structural, functional, and genomic aspects of in vivo organs. The PDTOs were grown in culture from patient tumor biopsy samples.\n(§2) Fresh patient biopsy samples received following surgery were cleaned and purified. Immune cells (e.g., lymphocytes, blood cells), cancer-associated fibroblasts, and other non-tumor cells were removed to establish pure PDTOs for endoxifen testing. The tumor organoids were grown and expanded by supplying organ- and patient-specific growth factors and nutrients. The PDTOs were treated with increasing concentrations of endoxifen ranging from about 30 nM to about 10 μM, and the drug response was measured using a luminescence readout. A lower luminescence was indicative of a stronger drug response.\n(§3) The results were analyzed using a “SEngine Precision Medicine” (SPM) scoring system to assess the sensitivity and personalization of each tumor organoid to endoxifen. The SPM score correlates with clinical outcomes, such that a higher SPM score for a specific PDTO-drug combination predicts a more favorable clinical outcome following treatment of the corresponding patient with the tested drug.\n(§4) This example describes testing endoxifen efficacy against 17 distinct cancer types in patient-derived tumor organoids (PDTOs). Screening of PDTOs was performed as described in EXAMPLE 1. For each PDTO sample, the drug response was measured using a luminescent readout over a range of endoxifen concentrations. The drug response was evaluated based on the area under the fitted dose response curve (AUC) and the SPM scoring system. AUC values were normalized for each PDTO. Briefly, data points at each drug concentration were first normalized to a negative control, then a dose response drug curve was approximated using a four-parameter logistic model fitted to the normalized data points. The area under the curve was calculated from the normalized curve. Normalization allowed for comparison of AUC values between patient samples. The SPM scores were based on machine learning models that incorporate values for how well the drug kill patient cells (sensitivity metric), the relative drug responses of a patient to all other patients in a sample database (personalization metric), and knowledge of clinical outcomes for patients that had been evaluated with the personalized cancer screening assay (PARIS® Test, SEngine Precision Medicine).\n(§5) The SPM scoring system evaluated whether a PDTO was unresponsive or responsive to endoxifen and the degree of drug response for PDTOs that were responsive to endoxifen. […] The sensitivity category was determined from the sensitivity metric and is a measure of overall cell death of a patient's cells in response to endoxifen at six concentrations. […]"}, "[2]": {"tested_on": "patient-derived tumor organoids (PDTOs), cervical carcinoma", "test": "Endoxifen screen in PDTOs: cervical carcinoma", "design": "key to Personalization Category: Personalization categories range from High, Good, Moderate, Low, to None; Personalization categories range from High, Good, Moderate, Low, to None; Personalization categories range from High, Good, Moderate, Low, to None; Personalization categories range from High, Good, Moderate, Low, to None; Personalization categories range from High, Good, Moderate, Low, to None; key to Sensitivity Category: Sensitivity categories range from High, Good, Moderate, Low, to None; Sensitivity categories range from High, Good, Moderate, Low, to None; Sensitivity categories range from High, Good, Moderate, Low, to None; Sensitivity categories range from High, Good, Moderate, Low, to None; Sensitivity categories range from High, Good, Moderate, Low, to None; AUC: unit not given beside the values", "description": "as §1, §2, §3, §4, §5"}, "[3]": {"tested_on": "patient-derived tumor organoids (PDTOs), ovarian cancer", "test": "Endoxifen screen in PDTOs: ovarian cancer", "design": "AUC: unit not given beside the values", "conditions": "each line one patient sample", "description": "as §1\nas §2, with “The tumor organoids were grown and expanded by supplying organ- and patient-specific growth factors and nutrients.” left out\nThe results were analyzed using a “SEngine Precision Medicine” (SPM) scoring system to assess the sensitivity and personalization of each tumor organoid to endoxifen. […]\nThis example describes testing endoxifen efficacy against 17 distinct cancer types in patient-derived tumor organoids (PDTOs). […] For each PDTO sample, the drug response was measured using a luminescent readout over a range of endoxifen concentrations. The drug response was evaluated based on the area under the fitted dose response curve (AUC) and the SPM scoring system. […] The area under the curve was calculated from the normalized curve. […]\nThe SPM scoring system evaluated whether a PDTO was unresponsive or responsive to endoxifen and the degree of drug response for PDTOs that were responsive to endoxifen. […]"}, "[4]": {"tested_on": "patient-derived tumor organoids (PDTOs), primary peritoneal carcinoma", "test": "Endoxifen screen in PDTOs: primary peritoneal carcinoma", "design": "key to Personalization Category: Personalization categories range from High, Good, Moderate, Low, to None; Personalization categories range from High, Good, Moderate, Low, to None; Personalization categories range from High, Good, Moderate, Low, to None; Personalization categories range from High, Good, Moderate, Low, to None; Personalization categories range from High, Good, Moderate, Low, to None; key to Sensitivity Category: Sensitivity categories range from High, Good, Moderate, Low, to None; Sensitivity categories range from High, Good, Moderate, Low, to None; Sensitivity categories range from High, Good, Moderate, Low, to None; Sensitivity categories range from High, Good, Moderate, Low, to None; Sensitivity categories range from High, Good, Moderate, Low, to None; AUC: unit not given beside the values", "description": "as §1, §2, §3, §4, §5"}, "[5]": {"conditions": "normalized area under fitted dose response curve"}}, "note": "“And” between values parts separate entries of the source, which are not always exact repeats. Equal entries are not always repeated. “Also recorded” adds a separate entry of the source."}
{"smiles": "CC/C(=C(\\c1ccc(O)cc1)c1ccc(OCCNC)cc1)c1ccccc1", "note": "[Endoxifen, 4-hydroxy-N-desmethyltamoxifen]", "values": [{"measurement": "Response Category", "setting": "[1]", "value": "Moderate (moderate response (SPM 10-11)); also recorded: None (no response (SPM 1-8)); also recorded: Low (low response (SPM 9)); also recorded: Good (good response (SPM 12-13)); also recorded: Exceptional (exceptional response (SPM 14-15))"}, {"measurement": "AUC", "setting": "[1]; [5]", "value": "0.8248 and 0.9311 and 0.8639 and 0.6798 and 0.8079 and 0.9835 and 0.8609 and 0.8997 and 0.8847 and 0.9811 and 0.9320 and 0.9911 and 0.9378 and 0.4774 and 0.5912"}, {"measurement": "Sensitivity Category", "setting": "[1]; overall cell death at six concentrations", "value": "Low and None and Moderate and Good"}, {"measurement": "Personalization Category", "setting": "[1]; response relative to other PDTOs", "value": "Moderate and None and Low and High and Good"}, {"measurement": "SPM Score", "setting": "[1]; score range 1-15", "value": "10 and 1 (6×) and 9 (3×) and 13 (2×) and 11 and 4 and 14"}, {"measurement": "IC50", "setting": "[2]; Homo sapiens, Patient 10, four-parameter logistic fit", "value": 3.48, "unit": "µM"}, {"measurement": "Personalization Category", "setting": "[2]; Patient 10", "value": "Good"}, {"measurement": "Sensitivity Category", "setting": "[2]; Patient 10", "value": "Low"}, {"measurement": "AUC", "setting": "[2]; Patient 10, normalized area under fitted dose response curve", "value": 0.8002}, {"measurement": "SPM Score", "setting": "[2]; Patient 10, score range 1-15", "value": 11}, {"measurement": "IC50", "setting": "[3]; four-parameter logistic fit", "value": "9.26 µM and 8.13 µM and 6.7 µM and 4.87 µM and 7.26 µM and 9.3 µM and 3.08 µM and 6.91 µM and 9.33 µM and 3.45 µM and 9.41 µM and 6.22 µM and 9.47 µM and 6.17 µM and 7.21 µM and 6.13 µM and 4.14 µM and 6.06 µM and 3.59 µM and 5.48 µM and 3.69 µM and 4.28 µM and 9.16 µM"}, {"measurement": "AUC", "setting": "[3]; [5]", "value": "0.9109 and 1.0762 and 0.8038 and 0.9291 and 0.9081 and 0.9209 and 1.0105 and 0.8454 and 0.8909 and 0.9267 and 0.9074 and 0.8343 and 0.9838 and 0.8320 and 1.0057 and 0.9637 and 1.1417 and 1.0287 and 0.8785 and 0.8853 and 0.9968 and 0.9220 and 0.8174 and 0.9760 and 0.8739 and 0.8607 and 1.0172 and 0.9895 and 0.9934"}, {"measurement": "SPM Score", "setting": "[3]; score range 1-15", "value": "1 (15×) and 11 (2×) and 5 (3×) and 9 (6×) and 10 (2×) and 4"}, {"measurement": "IC50", "setting": "[4]; Homo sapiens, patient 72, four-parameter logistic fit", "value": 9.37, "unit": "µM"}, {"measurement": "Personalization Category", "setting": "[4]; patient 72", "value": "None"}, {"measurement": "Sensitivity Category", "setting": "[4]; patient 72", "value": "None"}, {"measurement": "AUC", "setting": "[4]; patient 72, normalized area under fitted dose response curve", "value": 0.9623}, {"measurement": "SPM Score", "setting": "[4]; patient 72, score range 1-15", "value": 1}]}
